Legend:
Experiment in all cases: radiometric filter-binding kinase assay
MAP3K9 (human) = MAP3K9 (human) (UniProt P80192)
DAPK1 (human) = DAPK1 (human) (UniProt P53355)
HIPK1 (human) = HIPK1 (human) (UniProt Q86Z02)
ERBB4 (human) = ERBB4 (human) (UniProt Q15303)
MAPK11 (human) = MAPK11 (human) (UniProt Q15759)
PAK4 (human) = PAK4 (human) (UniProt O96013)
MARK3 (human) = MARK3 (human) (UniProt P27448)
MAP2K6 (human) = MAP2K6 (human) (UniProt P52564)
BTK (human) = BTK (human) (UniProt Q06187)
EEF2K (human) = EEF2K (human) (UniProt O00418)
PRKCZ (human) = PRKCZ (human) (UniProt Q05513)
NUAK1 (human) = NUAK1 (human) (UniProt O60285)
DYRK2 (human) = DYRK2 (human) (UniProt Q92630)
Chain of DYRK2 (human) (Q92630 whole entry, looked up): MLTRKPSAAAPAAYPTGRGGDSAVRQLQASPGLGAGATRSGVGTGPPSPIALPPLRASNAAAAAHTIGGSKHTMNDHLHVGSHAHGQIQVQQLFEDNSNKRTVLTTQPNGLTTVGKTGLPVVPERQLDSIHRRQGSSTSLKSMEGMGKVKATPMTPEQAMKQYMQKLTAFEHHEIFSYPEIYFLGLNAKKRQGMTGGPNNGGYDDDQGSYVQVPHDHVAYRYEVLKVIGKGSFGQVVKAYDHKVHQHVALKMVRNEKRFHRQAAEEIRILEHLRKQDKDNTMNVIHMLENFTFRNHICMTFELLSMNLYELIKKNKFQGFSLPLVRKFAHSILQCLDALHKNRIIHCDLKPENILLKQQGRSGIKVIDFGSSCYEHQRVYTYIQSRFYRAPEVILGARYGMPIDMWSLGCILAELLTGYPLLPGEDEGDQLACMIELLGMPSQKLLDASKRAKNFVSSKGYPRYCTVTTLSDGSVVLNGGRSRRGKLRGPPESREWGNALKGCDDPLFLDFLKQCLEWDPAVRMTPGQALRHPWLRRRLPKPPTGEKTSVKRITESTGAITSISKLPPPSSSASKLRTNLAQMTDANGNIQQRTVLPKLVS

NEK6 (human) = NEK6 (human) (UniProt Q9HC98)
IKBKE (human) = IKBKE (human) (UniProt Q14164)
HIPK2 (human) = HIPK2 (human) (UniProt Q9H2X6)
CSNK2A1 (human) = CSNK2A1 (human) (UniProt P68400)
Chain of CSNK2A1 (human) (P68400 whole entry, looked up): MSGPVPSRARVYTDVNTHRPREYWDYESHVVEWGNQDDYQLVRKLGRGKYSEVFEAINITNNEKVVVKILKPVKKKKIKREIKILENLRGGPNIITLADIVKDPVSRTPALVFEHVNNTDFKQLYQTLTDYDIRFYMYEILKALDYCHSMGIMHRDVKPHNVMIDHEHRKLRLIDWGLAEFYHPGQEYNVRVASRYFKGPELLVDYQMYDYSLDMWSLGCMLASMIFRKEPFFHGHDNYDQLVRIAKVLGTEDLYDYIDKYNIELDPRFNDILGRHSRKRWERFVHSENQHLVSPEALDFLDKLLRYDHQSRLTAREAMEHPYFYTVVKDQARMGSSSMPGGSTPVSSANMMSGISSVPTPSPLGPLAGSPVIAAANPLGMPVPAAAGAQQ

CaMK1 (human) = CaMK1 (human) (UniProt Q14012)
EPHB3 (human) = EPHB3 (human) (UniProt P54753)
TAOK1 (human) = TAOK1 (human) (UniProt Q7L7X3)
ROCK2 (rat) = conditions: accession and sequence are those of the human protein
DYRK1A (human) = DYRK1A (human) (UniProt Q13627)
MAPK13 (human) = MAPK13 (human) (UniProt O15264)
Chain of MAPK13 (human) (O15264 whole entry, looked up): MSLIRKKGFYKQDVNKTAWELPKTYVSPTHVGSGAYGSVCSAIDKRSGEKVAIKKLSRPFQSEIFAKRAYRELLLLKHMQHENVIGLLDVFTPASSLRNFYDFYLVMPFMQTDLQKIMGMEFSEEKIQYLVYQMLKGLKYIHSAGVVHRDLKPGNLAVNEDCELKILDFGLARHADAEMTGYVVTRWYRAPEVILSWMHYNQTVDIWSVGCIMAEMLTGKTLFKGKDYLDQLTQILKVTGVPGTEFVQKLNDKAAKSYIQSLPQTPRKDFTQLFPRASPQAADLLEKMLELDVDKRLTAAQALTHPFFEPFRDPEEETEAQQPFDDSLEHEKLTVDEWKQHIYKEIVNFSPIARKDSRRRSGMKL

MST4 (human) = MST4 (human) (UniProt Q9P289)
MAPK14 (human) = MAPK14 (human) (UniProt Q16539)
EPHA2 (human) = EPHA2 (human) (UniProt P29317)
EPHB1 (human) = EPHB1 (human) (UniProt P54762)
MARK1 (human) = MARK1 (human) (UniProt Q9P0L2)
RPS6KA5 KD1 KD2 (human) = RPS6KA5 KD1 KD2 (human) (UniProt O75582)
Chain of RPS6KA5 KD1 KD2 (human) (O75582 whole entry, looked up): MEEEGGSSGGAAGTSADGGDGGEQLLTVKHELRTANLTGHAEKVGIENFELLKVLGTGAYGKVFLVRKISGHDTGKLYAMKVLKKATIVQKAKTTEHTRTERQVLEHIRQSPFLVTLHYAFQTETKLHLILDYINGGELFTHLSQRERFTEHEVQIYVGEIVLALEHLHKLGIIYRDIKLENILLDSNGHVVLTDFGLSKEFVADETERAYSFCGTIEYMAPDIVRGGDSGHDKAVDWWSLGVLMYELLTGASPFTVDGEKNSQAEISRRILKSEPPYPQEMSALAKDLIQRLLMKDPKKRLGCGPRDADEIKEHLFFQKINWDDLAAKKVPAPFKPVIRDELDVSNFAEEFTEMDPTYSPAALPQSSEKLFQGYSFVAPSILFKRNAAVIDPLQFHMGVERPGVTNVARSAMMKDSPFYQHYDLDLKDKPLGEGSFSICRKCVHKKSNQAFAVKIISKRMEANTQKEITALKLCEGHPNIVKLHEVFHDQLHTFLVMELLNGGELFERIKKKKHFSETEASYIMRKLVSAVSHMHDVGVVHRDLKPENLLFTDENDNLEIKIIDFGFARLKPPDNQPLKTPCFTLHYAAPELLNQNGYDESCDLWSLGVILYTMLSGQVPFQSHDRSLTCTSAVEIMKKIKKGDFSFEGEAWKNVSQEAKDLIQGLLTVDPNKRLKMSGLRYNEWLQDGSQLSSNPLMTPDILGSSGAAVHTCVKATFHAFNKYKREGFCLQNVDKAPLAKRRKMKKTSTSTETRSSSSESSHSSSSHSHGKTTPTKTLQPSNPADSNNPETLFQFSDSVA

MAPKAPK5 (human) = MAPKAPK5 (human) (UniProt Q8IW41)
PAK7 (human) = PAK7 (human) (UniProt Q9P286)
LCK (mouse) = conditions: accession and sequence are those of the human protein
[1] = tested on: AKT1 (human), P31749 [S473D]
HIPK3 (human) = HIPK3 (human) (UniProt Q9H422)
DYRK3 (human) = DYRK3 (human) (UniProt O43781)
PAK6 (human) = PAK6 (human) (UniProt Q9NQU5)

Chain of PAK4 (human) (O96013 whole entry, looked up): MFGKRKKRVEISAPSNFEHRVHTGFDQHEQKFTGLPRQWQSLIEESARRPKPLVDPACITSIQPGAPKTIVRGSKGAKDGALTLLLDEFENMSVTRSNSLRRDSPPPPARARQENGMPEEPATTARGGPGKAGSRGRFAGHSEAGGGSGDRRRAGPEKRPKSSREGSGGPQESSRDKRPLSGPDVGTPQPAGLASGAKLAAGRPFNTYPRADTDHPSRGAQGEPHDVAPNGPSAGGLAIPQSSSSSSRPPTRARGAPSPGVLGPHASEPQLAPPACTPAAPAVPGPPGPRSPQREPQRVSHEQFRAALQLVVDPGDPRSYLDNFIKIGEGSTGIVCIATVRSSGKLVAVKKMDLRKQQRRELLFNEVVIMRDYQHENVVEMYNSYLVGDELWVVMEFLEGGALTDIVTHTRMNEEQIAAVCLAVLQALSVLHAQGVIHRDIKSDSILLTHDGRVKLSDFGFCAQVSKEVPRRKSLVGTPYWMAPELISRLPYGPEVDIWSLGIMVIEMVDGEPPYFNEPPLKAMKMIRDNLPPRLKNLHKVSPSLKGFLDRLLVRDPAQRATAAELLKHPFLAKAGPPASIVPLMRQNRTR
Chain of MAP3K9 (human) (P80192 whole entry, looked up): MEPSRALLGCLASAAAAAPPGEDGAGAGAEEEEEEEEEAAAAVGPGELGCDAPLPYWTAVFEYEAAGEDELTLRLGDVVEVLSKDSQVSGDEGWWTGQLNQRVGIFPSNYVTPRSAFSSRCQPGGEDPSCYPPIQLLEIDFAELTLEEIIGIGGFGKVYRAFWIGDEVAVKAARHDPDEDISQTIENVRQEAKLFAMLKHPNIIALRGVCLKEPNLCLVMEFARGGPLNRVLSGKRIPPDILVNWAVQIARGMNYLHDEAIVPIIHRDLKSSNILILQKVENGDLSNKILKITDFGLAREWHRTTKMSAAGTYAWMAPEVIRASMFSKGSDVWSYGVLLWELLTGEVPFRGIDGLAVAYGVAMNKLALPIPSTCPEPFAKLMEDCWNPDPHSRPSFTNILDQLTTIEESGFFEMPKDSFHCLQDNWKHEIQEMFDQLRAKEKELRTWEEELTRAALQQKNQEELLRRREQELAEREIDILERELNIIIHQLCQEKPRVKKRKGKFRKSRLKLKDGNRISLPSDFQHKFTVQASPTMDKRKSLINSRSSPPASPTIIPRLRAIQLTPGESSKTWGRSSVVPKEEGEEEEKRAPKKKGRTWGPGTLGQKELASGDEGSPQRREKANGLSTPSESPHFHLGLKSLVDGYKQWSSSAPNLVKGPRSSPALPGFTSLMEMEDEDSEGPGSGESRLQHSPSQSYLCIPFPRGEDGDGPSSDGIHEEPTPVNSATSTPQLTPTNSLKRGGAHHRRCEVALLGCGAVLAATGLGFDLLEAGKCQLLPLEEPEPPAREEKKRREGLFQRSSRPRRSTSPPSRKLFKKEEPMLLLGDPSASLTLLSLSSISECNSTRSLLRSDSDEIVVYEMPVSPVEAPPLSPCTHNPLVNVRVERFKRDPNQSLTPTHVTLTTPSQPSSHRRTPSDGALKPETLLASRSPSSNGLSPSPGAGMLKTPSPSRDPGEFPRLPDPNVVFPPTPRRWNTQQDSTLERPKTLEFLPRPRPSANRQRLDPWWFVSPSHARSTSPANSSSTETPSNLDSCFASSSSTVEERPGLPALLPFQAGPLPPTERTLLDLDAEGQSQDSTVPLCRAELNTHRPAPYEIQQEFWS
Chain of HIPK1 (human) (Q86Z02 whole entry, looked up): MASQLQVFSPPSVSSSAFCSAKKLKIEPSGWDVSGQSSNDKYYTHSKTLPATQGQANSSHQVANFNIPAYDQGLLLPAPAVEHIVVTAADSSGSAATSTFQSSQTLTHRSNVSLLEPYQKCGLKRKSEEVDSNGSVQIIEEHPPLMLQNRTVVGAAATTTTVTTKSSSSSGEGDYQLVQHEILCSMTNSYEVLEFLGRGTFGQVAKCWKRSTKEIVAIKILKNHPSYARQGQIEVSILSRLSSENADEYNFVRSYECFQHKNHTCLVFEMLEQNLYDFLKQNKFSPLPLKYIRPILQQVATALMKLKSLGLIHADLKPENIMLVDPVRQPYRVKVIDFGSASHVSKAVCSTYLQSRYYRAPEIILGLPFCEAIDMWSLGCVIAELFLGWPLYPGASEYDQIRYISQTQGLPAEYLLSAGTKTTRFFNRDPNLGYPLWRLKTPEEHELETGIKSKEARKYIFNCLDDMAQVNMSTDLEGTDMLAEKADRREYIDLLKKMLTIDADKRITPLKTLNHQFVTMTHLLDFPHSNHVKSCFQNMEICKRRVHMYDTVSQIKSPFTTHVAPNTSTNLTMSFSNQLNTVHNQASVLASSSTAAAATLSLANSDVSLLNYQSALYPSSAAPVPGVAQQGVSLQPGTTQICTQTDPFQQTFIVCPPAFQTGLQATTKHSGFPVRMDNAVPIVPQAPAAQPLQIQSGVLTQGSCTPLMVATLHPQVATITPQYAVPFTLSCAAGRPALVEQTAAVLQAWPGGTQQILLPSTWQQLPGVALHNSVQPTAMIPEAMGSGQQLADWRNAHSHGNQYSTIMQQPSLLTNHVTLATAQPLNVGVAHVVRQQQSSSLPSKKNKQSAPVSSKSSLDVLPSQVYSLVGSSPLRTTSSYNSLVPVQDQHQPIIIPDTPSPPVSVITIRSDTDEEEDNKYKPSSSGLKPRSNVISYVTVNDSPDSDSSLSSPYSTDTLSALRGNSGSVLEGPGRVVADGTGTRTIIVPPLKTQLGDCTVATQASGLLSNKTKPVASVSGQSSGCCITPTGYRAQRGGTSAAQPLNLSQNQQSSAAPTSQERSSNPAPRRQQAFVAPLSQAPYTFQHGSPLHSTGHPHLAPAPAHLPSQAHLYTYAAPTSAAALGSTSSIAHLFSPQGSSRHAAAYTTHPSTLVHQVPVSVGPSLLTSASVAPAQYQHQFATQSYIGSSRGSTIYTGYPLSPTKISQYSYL

N#Cc1c(C2CCNCC2)cc(-c2c(O)cccc2OCC2CC2)nc1N
residual activity (MAP3K9 (human); compound 1.0 µM): 73% | residual activity (MAP3K9 (human); compound 10.0 µM): 66% | residual activity (DAPK1 (human); compound 1.0 µM): 68% | residual activity (DAPK1 (human); compound 10.0 µM): 46% | residual activity (HIPK1 (human); compound 1.0 µM): 113% | residual activity (HIPK1 (human); compound 10.0 µM): 62% | residual activity (ERBB4 (human); compound 1.0 µM): 71% | residual activity (ERBB4 (human); compound 10.0 µM): 67% | residual activity (MAPK11 (human); compound 1.0 µM): 88% | residual activity (MAPK11 (human); compound 10.0 µM): 71% | residual activity (PAK4 (human); compound 1.0 µM): 112% | residual activity (PAK4 (human); compound 10.0 µM): 69% | residual activity (MARK3 (human); compound 1.0 µM): 118% | residual activity (MARK3 (human); compound 10.0 µM): 82% | residual activity (MAP2K6 (human); compound 1.0 µM): 76% | residual activity (MAP2K6 (human); compound 10.0 µM): 83% | residual activity (BTK (human); compound 1.0 µM): 122% | residual activity (BTK (human); compound 10.0 µM): 58% | residual activity (EEF2K (human); compound 1.0 µM): 90% | residual activity (EEF2K (human); compound 10.0 µM): 56% | residual activity (PRKCZ (human); compound 1.0 µM): 88% | residual activity (PRKCZ (human); compound 10.0 µM): 76% | residual activity (NUAK1 (human); compound 1.0 µM): 53% | residual activity (NUAK1 (human); compound 10.0 µM): 24% | residual activity (DYRK2 (human); compound 1.0 µM): 91% | residual activity (DYRK2 (human); compound 10.0 µM): 91% | residual activity (NEK6 (human); compound 1.0 µM): 99% | residual activity (NEK6 (human); compound 10.0 µM): 101% | residual activity (IKBKE (human); compound 1.0 µM): 87% | residual activity (IKBKE (human); compound 10.0 µM): 96% | residual activity (HIPK2 (human); compound 1.0 µM): 80% | residual activity (HIPK2 (human); compound 10.0 µM): 59% | residual activity (CSNK2A1 (human); compound 1.0 µM): 91% | residual activity (CSNK2A1 (human); compound 10.0 µM): 93% | residual activity (CaMK1 (human); compound 1.0 µM): 85% | residual activity (CaMK1 (human); compound 10.0 µM): 27% | residual activity (EPHB3 (human); compound 1.0 µM): 94% | residual activity (EPHB3 (human); compound 10.0 µM): 74% | residual activity (TAOK1 (human); compound 1.0 µM): 77% | residual activity (TAOK1 (human); compound 10.0 µM): 57% | residual activity (ROCK2 (rat); compound 1.0 µM): 88% | residual activity (ROCK2 (rat); compound 10.0 µM): 61% | residual activity (DYRK1A (human); compound 1.0 µM): 99% | residual activity (DYRK1A (human); compound 10.0 µM): 80% | residual activity (MAPK13 (human); compound 1.0 µM): 85% | residual activity (MAPK13 (human); compound 10.0 µM): 68% | residual activity (MST4 (human); compound 1.0 µM): 113% | residual activity (MST4 (human); compound 10.0 µM): 102% | residual activity (MAPK14 (human); compound 1.0 µM): 102% | residual activity (MAPK14 (human); compound 10.0 µM): 91% | residual activity (EPHA2 (human); compound 1.0 µM): 99% | residual activity (EPHA2 (human); compound 10.0 µM): 78% | residual activity (EPHB1 (human); compound 1.0 µM): 96% | residual activity (EPHB1 (human); compound 10.0 µM): 100% | residual activity (MARK1 (human); compound 1.0 µM): 88% | residual activity (MARK1 (human); compound 10.0 µM): 95% | residual activity (RPS6KA5 KD1 KD2 (human); compound 1.0 µM): 105% | residual activity (RPS6KA5 KD1 KD2 (human); compound 10.0 µM): 55% | residual activity (MAPKAPK5 (human); compound 1.0 µM): 90% | residual activity (MAPKAPK5 (human); compound 10.0 µM): 88% | residual activity (PAK7 (human); compound 1.0 µM): 84% | residual activity (PAK7 (human); compound 10.0 µM): 75% | residual activity (LCK (mouse); compound 1.0 µM): 82% | residual activity (LCK (mouse); compound 10.0 µM): 33% | residual activity ([1]; compound 1.0 µM): 81% | residual activity ([1]; compound 10.0 µM): 63% | residual activity (HIPK3 (human); compound 1.0 µM): 129% | residual activity (HIPK3 (human); compound 10.0 µM): 79% | residual activity (DYRK3 (human); compound 1.0 µM): 84% | residual activity (DYRK3 (human); compound 10.0 µM): 40% | residual activity (PAK6 (human); compound 1.0 µM): 89% | residual activity (PAK6 (human); compound 10.0 µM): 83%

— the kinase profiling compilation of Christmann-Franck et al. (2016)
